Reference: publication PMC8689140 (Frontiers in Pharmacology, 2021)

Tests used:
[1] = system: locomotor activity of rats; assay: Time-dependent effects on locomotor activity in rats; assay type: in vivo, rat; conditions: SD rats, 1.3 μmol/kg
Protocol: Rats were placed into the detection box after a single intragastric administration at different time points, and two rats from each group were used in each round of the experiment. The TopScan monitoring system was used to record and analyze the locomotor activity of the rats in different periods (0–1, 1–2, 3–4, 5–6, 6–7, and 7–8 h) after administration, and the RR was calculated as previously described.

[2] = Metabolite identification in dog plasma after oral dose; assay type: in vivo; conditions: dog plasma after oral administration
Protocol: (§1) Male beagle dogs were randomly divided into four groups. […] The dogs were fasted for 12 h before treatment and 4 h after treatment, but they were granted free access to water. Blood was collected from the vein before administration and 0.083 (only for injection groups), 0.25, 0.5, 1, 2, 3, 4, 6, 8, 12 and 24 h, and placed it in heparinized tubes, and centrifuged it at 8,000 rpm for 10 min at 4°C to separate the plasma, which we stored at −20 °C until analysis. The plasma samples were pretreated by protein precipitation with acetonitrile and quantitated by the validated LC-MS/MS (Shimadzu Exion-Triple Quad 4500) method.
Then, four volumes of acetonitrile (containing 0.1% formic acid) were added into the pooled plasma samples to precipitate the proteins. After vortex-mixing and centrifugation, the supernatants were dried under a nitrogen stream. Then, the residues were resuspended in 100 μl of acetonitrile/water (1:1, v/v) with 0.1% formic acid. After centrifugation, the supernatants were analyzed by UPLC–UV-HRMS for metabolite identification.
The analysis was performed on Acquity UPLC system coupled with a diode array detector (Waters Corporation, United States) and Q Exactive™ Orbitrap HRMS (Thermo Electron Corporation, United States). […] The mobile phase was composed water containing 0.1% formic acid (A) and acetonitrile containing 0.1% formic acid (B). The flow rate was 0.40 ml/min. The elution conditions were the following linear gradient for metabolite identify in HLMs: 0–1 min: 95% A, 1–2 min: 80% A, 2–5 min: 80% A, 5–8 min: 70% A, 8–12 min: 30% A, 12–15 min: 5% A, 15–16 min: 95% A, and 16–18 min: 95% A. The elution conditions were the following for metabolite identify in dog plasma: 0–1 min: 95% A, 1–30 min: 70% A, 30–32 min: 30% A, 32–33 min: 5% A, 33–35 min: 95% A, and 35–40 min: 95% A.
HRMS were operated at positive ion mode using a heating electrospray ionization source (HESI). The optimized operating parameters were set as follows: sheath gas (nitrogen) flow rate of 35 psi, aux gas (nitrogen) flow rate of 10 psi, HESI and capillary temperature of 350°C, and spray voltage of 3.5 kV. The metabolites were detected by full MS/dd-MS^2 analysis from m/z 100 to m/z 1,000. The resolution of the first-class scan and second-class scan was 70 000 and 17 500, respectively. The collision energy for collision induced dissociation (NCE) was set to 20, 40 and 60 eV. The loop count was set to five and the dynamic exclusion duration to 10 s. […] Thermo Compound Discover software was used to identify expected and unknown metabolites, and we finally proposed (+)-13e metabolic pathways based on the deduced metabolites and relevant drug biotransformation knowledge.

[3] = PK in dogs after single oral or intravenous dose; assay type: in vivo, dog
Protocol: as §1
The system consisted of an Exion UHPLC system (Shimadzu, Japan) and a Triple Quad 4500 mass spectrometer (AB Sciex, United States) with an electrospray ionization source. Multiple reaction monitoring in the positive ionization mode was applied to measure analytes. Chromatographic separation was performed on a Acquity BEH C18 column (50 × 2.1 mm i. d., 1.7 μm, Waters, United States). The mobile phase was composed of 0.1% FA in water (A) and 0.1% FA in acetonitrile (B), and the flow rate was 0.4 ml/min. The elution conditions were the following linear gradient: 0–0.4 min: 90% A, 0.4–0.6 min: 60% A, 0.6–1.2 min: 10% A, 1.2–2.2 min: 10% A, 2.2–2.3 min: 90% A, 2.3–3.0 min: 90% A. The optimized parameters were as follows: the spray voltage 5.5 kV, source temperature 550 °C, pressure of source gas 1 and gas 2: 55psi, pressure of curtain gas: 30psi, and the DP, EP and CE voltage was 30,6 and 40 eV, respectively.

[4] = Bidirectional permeability in Caco-2 cell monolayers; assay type: in vitro ADME; conditions: human, Caco-2, with or without verapamil 30 μM (range covers both); 2.0, 10.0, and 100 µM, presence or absence of verapamil 30 μM, 2 h; read-out: mean Papp (AP→BL)
Protocol: (§2) Caco-2 cells (ATCC, United States) were seeded on a 96-multiwell insert system (Corning, United States) at a density of 1.0 × 10^5 cells/cm^2. After about 24 days of culture, […] permeability was measured to evaluate the integrity of Caco-2 cell monolayers, and the percent of lucifer yellow in basolateral well which should be less than 1%. Before initiating the transport studies, the cell monolayers were washed with warm HBSS. […] Aliquots from the receiver chamber were collected at 2 h after incubation and stored at −20°C until analysis via LC-MS/MS. All experiments were conducted in triplicate. Permeability coefficient (Papp) and the efflux ratio (ER = P app (BL→AP)/P app (AP→BL)) were calculated.

Caco-2 cell monolayers = assay: as above; assay type: in vitro ADME
Protocol: as §2

[5] = Metabolite identification in liver microsomes from humans, dogs and rats (stated across species); assay type: in vitro ADME, human, dog, rat; conditions: liver microsomes from humans, rats, and dogs
Protocol: Human, rat and dog liver microsomes were carefully thawed on ice prior to the experiment and diluted to 1 mg/ml in100 mM sodium phosphate buffer (pH 7.4) containing 10 mM magnesium chloride. […] After 3 min of preincubation at 37°C, the reactions were initiated by adding 20 µL of NADPH (20 mM) and then incubated at 37°C in a shaking water bath for 60 min. All samples were prepared in duplicates. The reactions were terminated by adding 600 µl of ice-cold acetonitrile and stored at −20°C until analysis. Control samples without NADPH and 0-time point samples were included. As a positive control, testosterone (10 µM) which was metabolized to produce the hydroxylation metabolite was used as a substrate to confirm the activity of the incubation system. Next, the samples were centrifuged at 13,000 rpm for 10 min, the supernatant was separated and evaporated to dryness under a nitrogen stream. The residue was resuspended in 100 μl of acetonitrile, after centrifugation, the supernatants were analyzed by UPLC–UV-HRMS.
The analysis was performed on Acquity UPLC system coupled with a diode array detector (Waters Corporation, United States) and Q Exactive™ Orbitrap HRMS (Thermo Electron Corporation, United States). […]
HRMS were operated at positive ion mode using a heating electrospray ionization source (HESI). […] The metabolites were detected by full MS/dd-MS^2 analysis from m/z 100 to m/z 1,000. […]

rat brain VMAT2 = target: T1, rat brain VMAT2 (Rattus norvegicus, UniProt Q01827); assay: VMAT2 binding assay (inhibition of [3H]HTBZ binding); conditions: ratio of Ki vs HTBZ
T1 construct: the whole rat brain (excluding the cerebellum) or striatal were homogenized; tissue Eurofins Panlabs (assay performed by); host or cells: rat brain (without cerebellum) or striatum, synaptic vesicle suspension
T1 sequence (Q01827 whole entry): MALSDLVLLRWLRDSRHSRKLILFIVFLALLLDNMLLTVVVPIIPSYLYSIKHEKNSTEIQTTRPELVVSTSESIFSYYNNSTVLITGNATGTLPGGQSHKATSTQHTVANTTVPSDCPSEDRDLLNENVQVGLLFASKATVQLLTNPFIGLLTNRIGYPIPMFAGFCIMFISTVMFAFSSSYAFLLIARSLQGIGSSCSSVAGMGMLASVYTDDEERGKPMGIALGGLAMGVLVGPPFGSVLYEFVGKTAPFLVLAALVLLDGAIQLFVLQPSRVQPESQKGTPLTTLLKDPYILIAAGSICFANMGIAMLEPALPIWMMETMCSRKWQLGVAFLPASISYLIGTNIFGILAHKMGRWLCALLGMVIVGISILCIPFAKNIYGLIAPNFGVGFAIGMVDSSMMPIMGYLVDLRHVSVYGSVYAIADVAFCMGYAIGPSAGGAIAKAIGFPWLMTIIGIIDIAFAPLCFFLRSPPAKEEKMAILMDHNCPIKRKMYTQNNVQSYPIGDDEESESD
Protocol: In brief, the whole rat brain (excluding the cerebellum) or striatal were homogenized in 20 ml of ice-cold sucrose solution (0.32 M). […] The samples were centrifuged at 20,000 g at 4°C for 20 min, then 20 ml of MgSO4 solution (1 mM) was added to the supernatant.
A 96-well plate was used for the assay in duplicate. […] Samples were preincubated for 30 min at room temperature. […] All reactions were terminated using vacuum filtration over a GF/B glass fiber filter pretreated with 0.5% BSA. […] Radioactivity retained on the filters was determined by liquid scintillation counter. […] IC50 values were determined by a nonlinear least-squares regression analysis and Ki was calculated.

SMILES: COc1cc2c(cc1OCC(F)(F)F)CCN1CC(CC(C)C)C(O)CC21 (single isomer, unassigned; (+)) [(+)-13e, (+)-9-(2,2,2-trifluoroethoxy)-α-dihydrotetrabenazine]
- duration of significant inhibition of locomotor activity [1]: at least 8 h
- O-detrifluoroethylation at the nine position [2]: did not occur
- V, V/F ([3]; dog, single intravenous dose 0.6 μmol/kg): 5.4 ± 1.1 L/kg
- clearance ([3]; dog, single intravenous dose 0.6 μmol/kg, read-out: Cl, Cl/F (converted)): 23.3 mL/min/kg
- V, V/F ([3]; dog, single oral dose 3 μmol/kg): 18.8 ± 9.2 L/kg
- Cmax smaller than that of VBZ ([3]; dogs, oral administration at an equivalent dose): 2.9 fold
- Cmax larger than that of HTBZ ([3]; dogs, oral administration at an equivalent dose (HTBZ from VBZ)): 7.7 fold
- bioavailability ([3]; male, beagle, dog, plasma, dogs, oral 3 μmol/kg vs intravenous 0.6 μmol/kg, read-out: absolute oral bioavailability): 75.9%
- CL/F ([3]; male, beagle, plasma, 3 umol/kg, dog, single oral dose 3 μmol/kg): 31.7 mL/min/kg
- Papp A→B at 2 h [4]: 26 to 35 ×10⁻⁶ cm/s
- permeability across the Caco-2 cell monolayer (Caco-2 cell monolayers): high permeability
- substrate of P-gp or breast cancer resistance protein (BCRP) (Caco-2 cell monolayers; efflux not observed): unlikely to be a substrate
- O-detrifluoroethylation at the nine position [5]: did not occur
- affinity for VMAT2 stronger than that of HTBZ (rat brain VMAT2): ~3 fold
